# Test: water solubility under acidic conditions
# Type: physicochemical
# Conditions: not given
row,Compound,water solubility under acidic conditions
1,"2,2′,6,6′-tetrabenzylamine-5,5′-dihydroxy-1,1′-dicarbonylbinaphthalene",approximately 2 M
2,"O=C1C(O)=C(NCc2ccccc2)C(=O)c2ccccc21 [3-benzylamine-2-hydroxy-1,4-dicarbonylnaphthalene]",approximately 1 M
3,"Oc1c(NCc2ccccc2)ccc2c(O)c(NCc3ccccc3)ccc12 [2,6-Dibenzylamine-1,5-naphthalenediol]",lower than 5 mM
4,"O=C1C(NCc2ccccc2)=C(O)C(=O)c2c(O)c(NCc3ccccc3)cc(NCc3ccccc3)c21 [3,5,7-tribenzylamine-2,8-dihydroxy-1,4-dicarbonylnaphthalene]",approximately 1.6 M
5,"Oc1c(NCc2ccccc2)cc(NCc2ccccc2)c2c(O)c(NCc3ccccc3)cc(NCc3ccccc3)c12 [2,4,6,8-Tetrabenzylamine-1,5-naphthalenediol]",lower than 1 M

# Test: not given
# Conditions: in a pH=14 aqueous solution; cited from earlier work
row,Compound,solubility [mM]
1,O=C1C(O)=C(C2=C(O)C(=O)c3ccccc3C2=O)C(=O)c2ccccc21 [bilawsone],560
